From patent publication US20040110802A1, “Antibacterial benzoic acid derivatives” (priority 2002, published 2004)
Values after ≈ are worked out from the molar mass of the structure shown.

Test system: SAUR 9218
Experiment: MIC Test Method, standard agar dilution
Format: cell-based
Settings: agar dilution, Mueller Hinton agar, incubated overnight at 35° C.; lowest concentration that inhibits visible growth; read-out: SAUR 9218 MIC
Outline: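 MIC (μg/ml) was read as the lowest drug level without visible growth of SAUR 9218 after overnight incubation at 35 °C. Inocula of about 10^4 to 10^5 cells per spot were applied to Mueller Hinton agar containing 2-fold serial compound dilutions.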

| MIC [mg/L] | SMILES |
| --- | --- |
| 0.5 (≈ 1.04 µM) | Cn1cnc(S(=O)(=O)Nc2cccc3cc(C(=O)Nc4ccc(C#N)cc4C(=O)O)n(C)c23)c1 |
| 4 (≈ 8.86 µM) | Cn1c(C(=O)Nc2ccc(C#N)cc2C(=O)O)cc2cccc(-c3ccc(C(C)(C)C)cc3)c21 |
| > 128 | CC1(C)OCC(CCc2nc(C(=O)Nc3ccc(Br)cc3C(=O)O)co2)O1 (stereo not drawn) |
| 0.125 (≈ 0.244 µM) | N#Cc1ccc(NC(=O)c2ccc(SCCCOc3ccc(Br)cc3)nc2)c(C(=O)O)c1 |
| 0.125 (≈ 0.344 µM) | COc1ccccc1-c1cc(C(=O)Nc2ccc(C#N)cc2C(=O)O)no1 |
| 0.25 (≈ 0.548 µM) | N#Cc1ccc(NC(=O)c2cc3cccc(NC(=O)Cc4cccc(F)c4)c3[nH]2)c(C(=O)O)c1 |
| 16 (≈ 51.6 µM) | N#Cc1ccc(NC(=O)c2ccc3c(c2)OCO3)c(C(=O)O)c1 |
| 0.25 (≈ 0.706 µM) | COc1cccc(-c2cc(C(=O)Nc3ccc(O)cc3C(=O)O)no2)c1 |
| > 128 | O=C(Nc1ccc(Br)cc1C(=O)O)c1ccc[nH]1 |
| 2 (≈ 3.77 µM) | CN(c1ccc(Cl)cc1)S(=O)(=O)c1ccc(C(=O)Nc2ccc(Br)cc2C(=O)O)s1 |
| 16 (≈ 34.7 µM) | Cc1sc(C(=O)Nc2ccc(C#N)cc2C(=O)O)cc1S(=O)(=O)N1CC(C)CC(C)C1 (stereo not drawn) |
| > 128 | COC(Cc1cnc(C(=O)Nc2ccc(Br)cc2C(=O)O)cn1)[C@H](O)CO (stereo partly drawn) |

Second part, the compound before the results:

| SMILES | MIC [mg/L] |
| --- | --- |
| Cn1c(C(=O)Nc2ccc(C#N)cc2C(=O)O)cc2ccc(NS(C)(=O)=O)cc21 | 4 (≈ 9.7 µM) |
| N#Cc1ccc(NC(=O)c2cc3cccc(NC(=O)COc4ccc5ccccc5c4)c3[nH]2)c(C(=O)O)c1 | 0.25 (≈ 0.496 µM) |
| Cc1sc(C(=O)Nc2ccc(C#N)cc2C(=O)O)cc1S(=O)(=O)N1CCCCCC1 | 8 (≈ 17.9 µM) |
| COc1ccc(-c2cc(C(=O)Nc3ccc(Cl)cc3C(=O)O)no2)cc1 | 0.25 (≈ 0.671 µM) |
| N#Cc1ccc(NC(=O)c2cc3cccc(NC(=O)CCCc4ccccc4)c3[nH]2)c(C(=O)O)c1 | 0.5 (≈ 1.07 µM) |
| O=C(Nc1ccc(Cl)cc1C(=O)O)c1cc2cccc(S(=O)(=O)c3ccccc3)c2[nH]1 | 0.125 (≈ 0.275 µM) |
| N#Cc1ccc(NC(=O)c2ccc(SCc3nsc(Cl)n3)nc2)c(C(=O)O)c1 | 0.25 (≈ 0.579 µM) |
| O=C(O)c1cc(Br)ccc1NC(=O)c1noc2ccc(Br)cc12 | 1 (≈ 2.27 µM) |
| CCOCCOCCOc1ccccc1-c1cc(C(=O)Nc2ccc(C#N)cc2C(=O)O)no1 | 0.5 (≈ 1.07 µM) |
| Cc1sc(C(=O)Nc2ccc(Br)cc2C(=O)O)cc1S(=O)(=O)Nc1ccc(Cl)cc1 | 4 (≈ 7.55 µM) |
| Cc1c(S(=O)(=O)NCCc2ccc(N)cc2)csc1C(=O)Nc1ccc(Br)cc1C(=O)O | 8 (≈ 14.9 µM) |
| N#Cc1ccc(NC(=O)c2cccc3c2CCN(Cc2ccccc2)S3(=O)=O)c(C(=O)O)c1 | 8 (≈ 17.3 µM) |
| Cn1c(C(=O)Nc2ccc(C#N)cc2C(=O)O)cc2cccc(OCc3cccnc3)c21 | 0.125 (≈ 0.293 µM) |
| N#Cc1ccc(NC(=O)c2cncc(C#Cc3ccccc3)c2)c(C(=O)O)c1 | 4 (≈ 10.9 µM) |
| COc1cc(C(=O)Nc2ccc(Br)cc2C(=O)O)nn1Cc1ccccc1 | 128 (≈ 297 µM) |
| O=C(Nc1ccc(Br)cc1C(=O)O)c1cc(-c2ccccc2)n[nH]1 | > 128 |
| N#Cc1ccc(NC(=O)c2ccc(S(=O)(=O)Cc3ccccc3)nc2)c(C(=O)O)c1 | 64 (≈ 152 µM) |
| Cn1c(C(=O)Nc2ccc(C#N)cc2C(=O)O)cc2cccc(OCC3COc4ccccc4O3)c21 (stereo not drawn) | 0.125 (≈ 0.259 µM) |
| N#Cc1ccc(NC(=O)c2cc3cccc(NC(=O)Cc4ccc5ccccc5c4)c3[nH]2)c(C(=O)O)c1 | 0.25 (≈ 0.512 µM) |
| N#Cc1ccc(NC(=O)c2cncc(-c3cccc4cccnc34)c2)c(C(=O)O)c1 | 32 (≈ 81.1 µM) |
| N#Cc1ccc(NC(=O)c2cc3cccc4c3n2CC/C4=N\O)c(C(=O)O)c1 | 0.25 (≈ 0.668 µM) |
| CC(=O)Nc1ccccc1-c1ccc2onc(C(=O)Nc3ccc(C#N)cc3C(=O)O)c2c1 | 0.5 (≈ 1.14 µM) |
| Cn1c(C(=O)Nc2ccc(C#N)cc2C(=O)O)cc2c(Br)cc(Br)c(N)c21 | 0.5 (≈ 1.02 µM) |
| COc1cccc2cc(C(=O)Nc3ccc(C#N)cc3C(=O)O)oc12 | 4 (≈ 11.9 µM) |
| Cl.Cn1c(C(=O)Nc2ccc(C#N)cc2C(=O)O)cc2cccc(OCC(O)CNCC(O)c3ccccc3)c21 (stereo not drawn) | 1 |
| Cl.Cn1c(C(=O)Nc2ccc(C#N)cc2C(=O)O)cc2cccc(OCC(O)CNc3ccccc3)c21 (stereo not drawn) | 0.125 |
| O=C(Nc1ccc(Br)cc1C(=O)O)c1ccc(SC2CCOCC2)nc1 | 1 (≈ 2.29 µM) |
